Laboratory results published in patent US20090131469A1, “PHARMACEUTICAL AGENT COMPRISING SOLIFENACIN” (ASTELLAS PHARMA INC., priority 2005, published 2009).
Counter-ions that a name gives are not always drawn.

Experiments:
[1] = tested on: patients with unstable bladder; assay: Clinical study of urinary urgency, pollakiuria and urinary incontinence: patients with unstable bladder; assay type: in vivo, human
Experimental: (§1) A clinical study was conducted in patients with urinary urgency, pollakiuria and urinary incontinence under the conditions described below. The causes of urinary urgency, pollakiuria and urinary incontinence were separated into neurogenic bladder (due to cerebral infarction or brain disorder due to brain contusion, peripheral neuropathy, and spinal cord disorder due to cervical or lumbar spondylosis, spondylitis deformans, cervical or lumbar spondylolisthesis, disk herniation, spinal stenosis and the like) and unstable bladder (without accompanying neurological diseases, urinary tract infections and calculi, irradiation history to the lumbar part and tumors in the pelvic organs that can be causal disease of detrussor hyperactivity) and analyses were done.
(§2) Male and female patients aged 20 years or older who presented symptoms of urinary urgency, pollakiuria and urinary incontinence for 6 months or a longer period, the number of micturition per 24 hours was 8 on average or higher and satisfied at least one of the following conditions (1) and (2):
(§3) (1) Having at least one episode of urge urinary incontinence per 24 hours on average (2) Having at least one episode of urinary urgency per 24 hours on average. Patients with stress urinary incontinence, psychogenic pollakiuria and the like were excluded. In addition, patients with complication of urinary tract infection, urinary calculi, interstitial cystitis, bladder tumor and the like were also excluded.
(§4) Group P: Placebo (Sham drug) Group S5: 5 mg of solifenacin succinate (corresponding to 3.8 mg of solifenacin calculated as a free base) Group S10: 10 mg of solifenacin succinate (corresponding to 7.5 mg of solifenacin calculated as a free base) Group B: 20 mg of propiverine hydrochloride
(§5) All the groups received oral administration once daily for 12 weeks.

[2] = tested on: rat model of pollakiuria associated with neurogenic bladder due to cerebral infarction; assay: Rat model of pollakiuria due to cerebral infarction (cystometry); assay type: in vivo; conditions: male SD rats with cerebral infarction; intravenous administration; 30 minutes after drug administration
Experimental: Male SD rats (270 g to 320 g) were used for the test. After the rats were anesthetized with pentobarbital (50 mg/kg), a vesical fistula cannula and a cannula for drug administration were inserted and indwelled in the bladder and the jugular vein, respectively. A cannula was also inserted and indwelled in the common carotid vein for drug administration. Cerebral infarction was prepared according to the method of Longa et al. (Stroke, 1989, vol. 20, p. 84-91) 2 to 3 days after the surgery. Under halothane anesthesia, the cervical part was incised and a nylon thread was inserted from the common carotid artery to the internal carotid artery and the tip of the thread was carried forward to the origin of the middle cerebral artery and indwelled to induce cerebral ischemia. On the next day, neurological symptoms were observed and scored according to the method of Garcia, et al. (Stroke, 1995, Vol. 26, p. […]) and rats having moderate or more severe symptoms (with a score of 13 or less) were selected.
After awakening from anesthesia, the rats were maintained in Bollman cages. The vesical fistula cannula was connected to a syringe pump via a three-way stopcock and physiological saline was continuously infused into the bladder to induce micturition reflex. Another end of the three-way stopcock was connected to a pressure transducer to measure intravesical pressure. After stabilization of micturition reflex, the test drug was administered through the catheter for drug dose inserted in the external carotid vein.
The volume of physiological saline required to induce a single micturition reflex at 30 minutes after drug administration, that is, bladder capacity and the voided volume per micturition were measured. The results are shown as mean±standard error.
The Student's t-test was used for a comparison between the sham surgery group and the cerebral infarction group and the Dunnett's multiple comparison test was used for a comparison between the group receiving drug administration and the group not receiving drug administration in the cerebral infarction group.

[3] = tested on: patients with neurogenic bladder; assay: Clinical study of urinary urgency, pollakiuria and urinary incontinence: patients with neurogenic bladder; assay type: in vivo, human; conditions: for improving effect on pollakiuria (in words) / improving effect on urinary incontinence (in words) / improving effect on urinary urgency (in words): solifenacin succinate 5 mg and 10 mg (Groups S5, S10), propiverine hydrochloride 20 mg (Group B), oral once daily for 12 weeks
Experimental: as §1, §2, §3, §4, §5

[4] = Group S5: 5 mg oral once daily for 12 weeks
[5] = Group S10: 10 mg oral once daily for 12 weeks
[6] = Group B: 20 mg oral once daily for 12 weeks

O=C(O[C@H]1CN2CCC1CC2)N1CCc2ccccc2[C@@H]1c1ccccc1 [solifenacin succinate, (3R)-quinuclidin-3-yl (1S)-1-phenyl-1,2,3,4-tetrahydroisoquinoline-2-carboxylate]
Difference of change in the number of micturitions from that in Group P [1, 4]: −1.02
Difference of change in the number of urinary incontinence episodes from that in Group P [1, 4]: −0.85
Difference of change in the number of urinary urgency episodes from that in Group P [1, 4]: −1.13
Mean change in the number of micturitions [1, 4]: −1.93
Mean change in the number of urinary incontinence episodes [1, 4]: −1.58
Mean change in the number of urinary urgency episodes [1, 4]: −2.38
Difference of change in the number of micturitions from that in Group P [1, 5]: −1.26
Difference of change in the number of urinary incontinence episodes from that in Group P [1, 5]: −0.88
Difference of change in the number of urinary urgency episodes from that in Group P [1, 5]: −1.56
Mean change in the number of micturitions [1, 5]: −2.17
Mean change in the number of urinary incontinence episodes [1, 5]: −1.61
Mean change in the number of urinary urgency episodes [1, 5]: −2.81
doses that increased the bladder capacity [2]: ≥ 0.03 mg/kg
doses that increased the voided volume [2]: ≥ 0.03 mg/kg
Difference of change in the number of micturitions from that in Group P [3, 4]: −0.56
Difference of change in the number of urinary incontinence episodes from that in Group P [3, 4]: −1.19
Difference of change in the number of urinary urgency episodes from that in Group P [3, 4]: −1.03
Mean change in the number of micturitions [3, 4]: −2.04
Mean change in the number of urinary incontinence episodes [3, 4]: −1.80
Mean change in the number of urinary urgency episodes [3, 4]: −2.86
Difference of change in the number of micturitions from that in Group P [3, 5]: −1.11
Difference of change in the number of urinary incontinence episodes from that in Group P [3, 5]: −0.79
Difference of change in the number of urinary urgency episodes from that in Group P [3, 5]: −0.60
Mean change in the number of micturitions [3, 5]: −2.59
Mean change in the number of urinary incontinence episodes [3, 5]: −1.40
Mean change in the number of urinary urgency episodes [3, 5]: −2.43
improving effect on pollakiuria (in words) [3]: improving effect on pollakiuria was observed
improving effect on urinary incontinence (in words) [3]: improve all the symptoms of urinary urgency, pollakiuria and urinary incontinence
improving effect on urinary urgency (in words) [3]: improving effect on urinary urgency was observed

CCCOC(C(=O)OC1CCN(C)CC1)(c1ccccc1)c1ccccc1 [propiverine hydrochloride, reference compound]
Difference of change in the number of micturitions from that in Group P [1, 6]: −0.99
Difference of change in the number of urinary incontinence episodes from that in Group P [1, 6]: −0.50
Difference of change in the number of urinary urgency episodes from that in Group P [1, 6]: −1.08
Mean change in the number of micturitions [1, 6]: −1.90
Mean change in the number of urinary incontinence episodes [1, 6]: −1.23
Mean change in the number of urinary urgency episodes [1, 6]: −2.33
doses that increased the bladder capacity [2]: ≥ 1 mg/kg
doses that increased the voided volume [2]: ≥ 0.3 mg/kg
Difference of change in the number of micturitions from that in Group P [3, 6]: +0.23
Difference of change in the number of urinary incontinence episodes from that in Group P [3, 6]: −1.01
Difference of change in the number of urinary urgency episodes from that in Group P [3, 6]: +0.18
Mean change in the number of micturitions [3, 6]: −1.25
Mean change in the number of urinary incontinence episodes [3, 6]: −1.62
Mean change in the number of urinary urgency episodes [3, 6]: −1.65
improving effect on pollakiuria (in words) [3]: no improving effect on pollakiuria was observed
improving effect on urinary incontinence (in words) [3]: improved urinary incontinence
improving effect on urinary urgency (in words) [3]: improving effect on urinary urgency was not observed
